In patent publication US20100172991A1, “Extended Release Formulation and Methods of Treating Adrenergic Dysregulation” (priority 2007, published 2010):
Values after ≈ are worked out from the molar mass of the structure shown. Read-outs that look alike come from different tables or passages of the source.

Key:
[1] = traditional oral formulation; cited from earlier work
[2] = tested on: systolic and diastolic blood pressure; assay: animal or person
Method: Mean baseline ABPM data for the three treatment groups were compared with mean data obtained on Day 26 (last day of treatment) and on Days 27 and 28. A more detailed PK/PD analysis was conducted by using the individual patient ABPM data to compare the blood pressure profile at Baseline and on Day 26 of treatment. The daytime (0- to 12-hour) intervals were used in the analysis, since pharmacokinetic data were collected on Day 25, over the daytime 12-hour dosing interval at steady state. In order to investigate the maintenance of effect at the tail end of the inter-dosing interval, differences between the SBP, DBP, and HR values at Baseline and the last two hours in the inter-dosing interval (Hours 11 and 12) on Day 26 were calculated for each patient. Paired t-tests were performed to test the significance of these differences between Baseline and the last two measuring times. The approach taken to quantify the effects of clonidine on blood pressure was to calculate the difference between the areas under the BP vs. time curves (AUCBP) at Baseline and on Day 26. These values were used to relate the pharmacodynamic effect to dose, as well as to conduct the PK/PD analyses.
Pharmacokinetic-pharmacodynamic modeling was conducted using the blood pressure response data and the Cmax, Cmin and AUCτ values at Day 25 of dosing. […] The data in Table 8 summarize the PK/PD parameters from the sigmoidal Emax model.

[3] = sigmoidal Emax model, Day 25 exposure

In the case of `Clc1cccc(Cl)c1NC1=NCCN1` [clonidine, 2,6-dichloro-N-2-imidazolidinylidene benzeneamine], the biological half-life [1] is given as “four to six”, the EC50 ([2]; Homo sapiens, 600 h, read-out: EC50, Diastolic BP vs Cmax) is given as 0.431 ng/mL (≈ 1.87 nM) and the EC50 ([2]; Homo sapiens, 600 h, read-out: EC50, Diastolic BP vs Cmin) is given as 0.341 ng/mL (≈ 1.48 nM). For the same compound, the EC50 ([2]; Homo sapiens, 600 h, read-out: EC50, Systolic BP vs Cmax) was 0.458 ng/mL (≈ 1.99 nM), the EC50 ([2]; Homo sapiens, 600 h, read-out: EC50, Systolic BP vs Cmin) was 0.359 ng/mL (≈ 1.56 nM) and the EC90 ([2]; Homo sapiens, 600 h, read-out: EC90, Diastolic BP vs AUCτ) was 5.92 ng/mL (≈ 25.7 nM). The “Emax (ΔBP), Diastolic BP vs AUCτ” value [2, 3] was 16.8, the “Emax (ΔBP), Diastolic BP vs Cmax” value [2, 3] was 16.7 and the “Emax (ΔBP), Diastolic BP vs Cmin” value [2, 3] was 16.8. For the same compound, the “Emax (ΔBP), Systolic BP vs AUCτ” value [2, 3] was 24.3, the “Emax (ΔBP), Systolic BP vs Cmax” value [2, 3] was 24.3 and the “Emax (ΔBP), Systolic BP vs Cmin” value [2, 3] was 24.4.
